Experimental data: US5077405A, “3-(1-Substituted-4-piperazinyl)-1H-indazoles” (Hoechst-Roussel Pharmaceuticals Incorporated, priority 1990, dated 1991)
Counter-ions that a name gives are not always drawn.

What follows are compounds tested on mice (assay: 2-phenyl-1,4-benzoquinone-induced writhing test in mice (analgesia)). Settings: Mus musculus, sc, read-out: Dose (subcutaneous) [ED50], inhibition of writhing.
Format: in vivo
Work on CN1CCN(c2n[nH]c3ccc(Cl)cc23)CC1 [5-Chloro-3-(4-methyl-1-piperazinyl)-1H-indazole] yielded an ED50 of 6.8 mg/kg. CC(=O)n1nc(N2CCN(C)CC2)c2ccccc21 [1-Acetyl-3-(4-methyl-1-piperazinyl)-1H-indazole] was tested, and the ED50 was 2.1 mg/kg. In the case of CN1CCN(c2n[nH]c3ccccc23)CC1 [3-(4-methyl-1-piperazinyl)-1H-indazole, 3-(4-Methyl-1-piperazinyl)-1H-indazole], the ED50 was 0.04 mg/kg. Work on CCn1nc(N2CCN(C)CC2)c2ccccc21 [1-ethyl-3-(4-methyl-1-piperazinyl)-1H-indazole] yielded an ED50 of 0.5 mg/kg. CCC(=O)O[C@](Cc1ccccc1)(c1ccccc1)[C@H](C)CN(C)C [propoxyphene, reference compound] showed an ED50 of 3.9 mg/kg. Compound c1ccc2c(N3CCNCC3)n[nH]c2c1 [3-(1-piperazinyl)-1H-indazole, 3-(1-Piperazinyl)-1H-indazole] has an ED50 of 0.9 mg/kg.

Same assay, conditions: Mus musculus, sc; mice, subcutaneous, 2-phenyl-1,4-benzoquinone-induced writhing; read-out: Dose (subcutaneous) [ED50], inhibition of writhing
Compound CN1CCN(c2nn(C(=O)c3ccccc3)c3cc(F)ccc23)CC1 [1-Benzoyl-6-fluoro-3-(4-methyl-1-piperazinyl)-1H-indazole] has an ED50 of 4.3 mg/kg. With CN1CCN(c2nn(CC3CC3)c3ccccc23)CC1 [1-Cyclopropylmethyl-3-(4-methyl-1-piperazinyl)-1H-indazole] the ED50 was 1.5 mg/kg. Cl.Cl.OCCN1CCN(c2n[nH]c3ccccc23)CC1 [3-[4-(2-Hydroxyethyl)-1-piperazinyl]-1H-indazole dihydrochloride] gave an ED50 of 2 mg/kg. With O=C1CC2(CCCC2)CC(=O)N1CCCCN1CCN(c2n[nH]c3ccccc23)CC1 [8-[4-[1-(1H-indazol-3-yl)-4-piperazinyl]butyl-8-azaspiro[4.5]decane-7,9-dione hemifumarate] the ED50 was 0.07 mg/kg. With Fc1ccc(C(CCCN2CCN(c3n[nH]c4ccccc34)CC2)c2ccc(F)cc2)cc1 [3-[4-[4,4-Bis(4-fluorophenyl)butyl-1-piperazinyl]-1H-indazole hydrochloride] the ED50 was 3.6 mg/kg.

The compounds below were run on mice (assay: climbing mice assay (apomorphine-induced climbing; antipsychotic activity)). Settings: Mus musculus, ip, read-out: Antipsychotic Activity (Climbing Mice Assay) ED50.
Format: in vivo, CK-1 male mice
Method: Antipsychotic activity is determined in the climbing mice assay by methods similar to those described by P. Protais, et al., Psychopharmacol, 50, 1 (1976) and B. Costall, Eur. J. Pharmacol., 50, 39 (1978).
The subject CK-1 male mice (23-27 grams) are group-housed under standard laboratory conditions. The mice are individually placed in wire mesh stick cages (4"×4"×10") and are allowed one hour for adaptation and exploration of the new environment. Then apomorphine is injected subcutaneously at 1.5 mg/kg, a dose causing climbing in all subjects for 30 minutes. Compounds to be tested for antipsychotic activity are injected intraperitoneally 30 minutes prior to the apomorphine challenge at a screening dose of 10 mg/kg.
For evaluation of climbing, 3 readings are taken at 10, 20 and 30 minutes after apomorphine administration according to the following scale:
4 paws on bottom (no climbing)
2 paws on the wall (rearing)
4 paws on the wall (full climb)
Mice consistently climbing before the injection of apomorphine are discarded.
With full-developed apomorphine climbing, the animals are hanging onto the cage walls, rather motionless over longer periods of time. By contrast, climbs due to mere motor stimulation usually last only a few seconds.
The climbing scores are individually totaled (maximum score: 6 per mouse over 3 readings) and the total score of the control group (vehicle intraperitoneally-apomorphine subcutaneously) is set to 100%. ED50 values with 95% confidence limits, calculated by a linear regression analysis of some of the compounds of this invention are presented in Table II.
Work on CN1CCN(c2n[nH]c3cc(F)ccc23)CC1 [6-Fluoro-3-(4-methyl-1-piperazinyl)-1H-indazole] yielded an ED50 of 4.7 mg/kg. In the case of O=C(CCCN1CCC(O)(c2ccc(Cl)cc2)CC1)c1ccc(F)cc1 [haloperidol, reference compound], the ED50 was 0.11 mg/kg. Compound Cl.Fc1ccc2c(N3CCNCC3)n[nH]c2c1 [6-Fluoro-3-(1-piperazinyl)-1H-indazole Hydrochloride] has an ED50 of 6.4 mg/kg.

Same assay, conditions: Mus musculus; male mice, ip 30 min before apomorphine 1.5 mg/kg sc; linear regression; read-out: Antipsychotic Activity (Climbing Mice Assay) ED50
Cc1[nH]c2ccccc2c1CCCN1CCN(c2n[nH]c3ccccc23)CC1 [3-{4-[3-(2-Methylindol-3-yl)propyl]-1-piperazinyl}-1H-indazole hemifumarate] was tested, and the ED50 was 0.4 mg/kg. For Cn1nc(N2CCN(CCCCN3C(=O)CC4(CCCC4)CC3=O)CC2)c2ccccc21 [8-[4-[1-(1-Methyl-1H-indazol-3-yl)-4-piperazinyl]butyl-8-azaspiro[4,5]decane-7,9-dione fumarate], the ED50 was 7.3 mg/kg. O=c1[nH]c2ccccc2n1CCCN1CCN(c2n[nH]c3cc(F)ccc23)CC1 [6-Fluoro-3-{4-[3-(1,3-dihydro-2-oxo-2H-benzimidazol-1-yl)propyl]-1-piperazinyl}-1H-indazole Hemifumarate] showed an ED50 of 0.43 mg/kg. In the case of O=C1CC2(CCCC2)CC(=O)N1CCCCN1CCN(c2n[nH]c3ccccc23)CC1 [8-[4-[1-(1H-indazol-3-yl)-4-piperazinyl]butyl-8-azaspiro[4.5]decane-7,9-dione hemifumarate], the ED50 was 0.6 mg/kg. In the case of Fc1ccc(C(CCCN2CCN(c3n[nH]c4ccccc34)CC2)c2ccc(F)cc2)cc1 [3-[4-[4,4-Bis(4-fluorophenyl)butyl-1-piperazinyl]-1H-indazole hydrochloride], the ED50 was 0.87 mg/kg.
